Measurements: publication PMC10204800 (Frontiers in Pharmacology, 2023)

Molecular target: T1, hDOR (human delta opioid receptor) (Homo sapiens, UniProt P41143)
T1 construct: gene OPRD1; stably transfected in CHO cells (CHO-hDOR); membrane homogenates
Assay type: binding
Conditions: read-out: Ki values (nM) Mean (SEM)

T1 sequence (P41143 whole entry): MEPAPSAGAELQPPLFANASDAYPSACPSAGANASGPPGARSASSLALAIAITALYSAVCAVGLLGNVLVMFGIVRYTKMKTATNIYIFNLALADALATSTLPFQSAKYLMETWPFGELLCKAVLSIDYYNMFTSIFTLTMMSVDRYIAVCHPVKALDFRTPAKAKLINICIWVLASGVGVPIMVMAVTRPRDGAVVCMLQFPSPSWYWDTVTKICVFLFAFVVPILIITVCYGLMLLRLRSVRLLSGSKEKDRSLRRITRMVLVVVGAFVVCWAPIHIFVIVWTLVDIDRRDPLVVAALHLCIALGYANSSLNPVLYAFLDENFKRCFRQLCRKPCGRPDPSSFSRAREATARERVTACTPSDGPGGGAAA

Work on “(4R,4aS,6R,7R,7aR,12bS)-3-(cyclopropylmethyl-d 2 )-6-(2-hydroxy-3,3-dimethylbutan-2-yl)-7-methoxy-1,2,3,4,5,6,7,7a-octahy dro-4a,7-ethano-4,12-methanobenzofuro[3,2-e]isoquinolin-9-ol [BUP-D2]” yielded a Ki of 0.424 nM.
